Laboratory results as given in patent US7419944B2, “Aqueous disinfecting systems” (Novartis AG, priority 2000, dated 2008).

Key:
[1] = tested on: Candida albicans; experiment: Semi-quantitative screen of common buffers plus approx. 1.2 ppm PHMB for antimicrobial activity; assay type: cell-based; conditions: for log reduction: buffer of equal molarity plus approx. 1.2 ppm PHMB, Candida albicans approx. 4x10^5 cfu/ml, estimated visually, in duplicate; for log reduction / estimated relative antimicrobial activity: 4.0 hour exposure; for estimated relative antimicrobial activity: buffer plus approx. 1.2 ppm PHMB, Candida albicans
Procedure: In this example common buffers plus approximately 1.2 ppm PHMB are evaluated for antimicrobial activity against Candida albicans. The pH and molarity of each solution was adjusted to approximately the same values. In that log reductions are estimated by visual observation of solution color and/or pellet formation in the bottom of the test tube, the test is semi-quantitative. All tests were performed in duplicate. All of the biological buffers shown in are described in Biochemicals and Reagents, Sigma-Aldrich CO., 2000-2001 edition Sigma-Aldrich, or online at URL sigma-aldrich.com.
Tubes of sterile solutions of buffer of equal molarity plus approxiamately 1.2 ppm PHMB are challenged with a suspension of Candida albicans at approx. 4×10^5 cfu/ml. Following 4.0 hour exposure, aliquots of each test solution are serially diluted to 10^−5 in DEB. Following approx. 40 hours incubation at ˜32° C., the tubes are observed for discoloration of the DEB and for a pellet in the 10^−5 tube. The entire study is then performed in duplicate.

[2] = cited from earlier work

Molecule: OCC(CO)(CO)NCCCNC(CO)(CO)CO [BIS-TRIS propane, 1,3-bis(tris[hydroxymethyl]methylamino)propane]
- log reduction [1]: 2-3 log
- estimated relative antimicrobial activity [1]: superior activity
- antimicrobial activity compared with solutions employing any of the other buffering agents ([1]; screening study of 15 biological buffers with polyhexamethylene biguanide or alexidine): significantly higher
- pH range useful as a buffering agent ([2]; aqueous solutions): 6.3-9.3
- pKa1 ([2]; dissociation constant): 6.8
- pKa2 ([2]; dissociation constant): 9.5

Molecule: O=S(=O)(O)CCCCN1CCOCC1 [MOBS]
- log reduction [1]: <1 log

Molecule: O=S(=O)(O)CC(O)CN1CCOCC1 (stereo not shown) [MOPSO]
- log reduction [1]: NONE

Molecule: O=S(=O)(O)CCN1CCN(CCS(=O)(=O)O)CC1 [PIPES]
- log reduction [1]: NONE

Molecule: O=S(=O)(O)CC(O)CN(CCO)CCO (stereo not shown) [DIPSO]
- log reduction [1]: <1 log

Molecule: OCCN(CCO)C(CO)(CO)CO [BIS-TRIS]
- log reduction [1]: 1 log
- estimated relative antimicrobial activity [1]: better activity than phosphate

Molecule: NC(=O)CNCCS(=O)(=O)O [ACES]
- log reduction [1]: <1 log

Molecule: O=S(=O)(O)CCCN1CCOCC1 [MOPS]
- log reduction [1]: NONE

Molecule: O=S(=O)(O)CCN(CCO)CCO [BES]
- log reduction [1]: NONE

Molecule: O=S(=O)(O)CCN1CCN(CCO)CC1 [HEPES]
- log reduction [1]: <1 log

Molecule: O=S(=O)(O)CCNC(CO)(CO)CO [TES]
- log reduction [1]: <1 log

Molecule: NC(=O)CN(CC(=O)O)CC(=O)O [ADA]
- log reduction [1]: NONE

Molecule: O=S(=O)(O)CC(O)CNC(CO)(CO)CO (stereo not shown) [TAPSO]
- log reduction [1]: 1 log
- estimated relative antimicrobial activity [1]: better activity than phosphate

Molecule: Borate
- log reduction [1]: 2-3 log
- estimated relative antimicrobial activity [1]: superior activity
